This is an account of results in US11897862B2 (Gilead Sciences, Inc., priority 2022, dated 2024).

Where only a bound is given, the exact number is not on record here.

The target of test [1] is IKZF2 (Homo sapiens, UniProt Q96SW2+Q9UKS7). The test can be described thus: HEK293 HiBiT in vitro degradation of IKZF2. Format: cell-based. Details: expressed in transfected cells. Particulars: for Dmax: HEK293, HEK293 HiBiT; for Dmax / IKZF2 Dmax: maximum degradation at the highest concentration tested; for DC50 / IKZF2 Dmax: HEK293 HiBiT; for DC50: 18-24 hr incubation, normalized to DMSO control, read-out: IKZF2 EC50. The procedure:
(§1) In vitro degradation of IKZF1, IKZF2, and SALL4 was measured using HiBiT protein tagging and detection technology (Promega).
(§2) HiBit technology was used to develop the quantitative assays to measure the cellular IKZFs level by tagging an 11 amino acid HiBit peptides […] to the protein of interest. Reporter plasmids were generated by fusing a linker sequence ([…]) followed by the HiBit tag at the C-terminus of IKZF1, IKZF2, and SALL4. The fusion fragments were subsequently cloned into pcDNA5 pcDNA™5/FRT/TO plasmids (Thermo Fisher, cat #V652020) downstream of the tetracycline operator. The resulting plasmids were co-transfected with pOG44 Flp-Recombinase Expression Vector (Thermo Fisher, cat #V600520) into Flp-In™ T-REx HEK293 line (Thermo Fisher, cat #R78077) and a stable cell pool was selected by adding 100 µg/ml of Hygromycin (Thermo Fisher, cat #10687010). The reporter cell enabled Tet-On inducible reporter expression from a single copy of the integrated gene.
(§3) On Day 1, Cells were grown to ˜80% confluency in tissue culture medium (DMEM Glutamax (Gibco10569), 10% Tet free FBS (Takara 631106), and PenStrep Glutamin (Gibco 10378)) in tissue culture flasks. Doxycycline was then added to a final concentration of […] to induce reporter expression at 37° C. overnight.
(§4) On Day 2, 125 nL of serially-diluted solution of testing compounds were dispensed into 384-well white solid assay plates via ECHO acoustic liquid handler. Cells were lifted by 0.25% Trypsin (Gibco 25200) then pelleted by centrifugation (Beckman Avanti J-E) at 500×g for 5 min. Cell pellets were resuspended in TC medium at the concentration of 3e5/mL and 25 μL of cell suspension were added into each well of compound-spotted plates. The plates were returned to a 37° C. incubator overnight (18-24 hr).
(§5) On Day 3, assay plates were removed from the tissue culture incubator and 25 μL of Nano-Glo lytic detection system (Promega, cat #N3030) was added to each well. Plates were incubated at r.t. for 3 min with shaking, and luminescence was read using an Envision reader (Perkin Elmer).
(§6) To assess the IKZF1, IKZF2, and SALL4 degrader potential of exemplified compounds of this disclosure and certain Reference Compounds EC50 and Dmax values were determined for the compounds of Examples 1 to 383 and Reference Compounds A-1, B-1, B-2, B-3, B-4, and C-1 in the HiBiT assays. Asterisks (*) indicate examples for which the data shown represents an average of n≥3.
In general terms: HiBiT is a short tag that completes a luciferase, so light tracks the accessible tagged protein.

Test [2] addresses T1, IKZF1 (Homo sapiens, UniProt Q13422+Q96SW2).
T1 construct: expressed in transfected cells
Put plainly: HEK293 HiBiT in vitro degradation of IKZF1. Conditions: for DC50 / IKZF1 Dmax: HEK293 HiBiT; for DC50: 18-24 hr incubation, normalized to DMSO control, read-out: IKZF1 EC50; for Dmax: HEK293, HEK293 HiBiT; for Dmax / IKZF1 Dmax: maximum degradation at the highest concentration tested. It counts as cell-based. The procedure: as §1, §2, §3, §4, §5, §6

Sequence of IKZF2 (Q9UKS7 1-500 isoform Q9UKS7-2): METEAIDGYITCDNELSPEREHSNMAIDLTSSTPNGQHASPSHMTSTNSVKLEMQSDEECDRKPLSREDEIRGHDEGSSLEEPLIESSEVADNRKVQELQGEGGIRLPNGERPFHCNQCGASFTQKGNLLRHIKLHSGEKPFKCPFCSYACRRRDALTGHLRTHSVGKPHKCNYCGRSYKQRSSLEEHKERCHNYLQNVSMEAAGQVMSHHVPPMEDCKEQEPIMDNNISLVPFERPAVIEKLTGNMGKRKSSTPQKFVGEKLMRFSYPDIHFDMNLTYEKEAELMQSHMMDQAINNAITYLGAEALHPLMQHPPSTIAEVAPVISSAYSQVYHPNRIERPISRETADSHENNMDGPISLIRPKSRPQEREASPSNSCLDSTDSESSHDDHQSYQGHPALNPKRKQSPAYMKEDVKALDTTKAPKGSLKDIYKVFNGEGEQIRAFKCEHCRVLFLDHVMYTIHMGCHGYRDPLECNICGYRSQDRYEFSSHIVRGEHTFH
Sequence of IKZF2 (Q96SW2 whole entry): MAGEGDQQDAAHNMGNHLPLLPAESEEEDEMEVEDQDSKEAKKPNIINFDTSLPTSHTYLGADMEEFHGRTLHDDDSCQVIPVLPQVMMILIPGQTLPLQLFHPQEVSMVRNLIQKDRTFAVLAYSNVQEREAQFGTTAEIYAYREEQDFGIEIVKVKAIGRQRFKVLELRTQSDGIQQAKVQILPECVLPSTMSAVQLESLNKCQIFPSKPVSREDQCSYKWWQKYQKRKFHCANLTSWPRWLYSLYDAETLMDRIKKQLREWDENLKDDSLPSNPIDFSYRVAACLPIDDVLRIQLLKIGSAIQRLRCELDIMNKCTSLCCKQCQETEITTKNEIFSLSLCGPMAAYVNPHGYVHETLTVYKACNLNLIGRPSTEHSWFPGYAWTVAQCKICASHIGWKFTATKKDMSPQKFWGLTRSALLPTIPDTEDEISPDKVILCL
Sequence of IKZF2 (Q16531 whole entry partner): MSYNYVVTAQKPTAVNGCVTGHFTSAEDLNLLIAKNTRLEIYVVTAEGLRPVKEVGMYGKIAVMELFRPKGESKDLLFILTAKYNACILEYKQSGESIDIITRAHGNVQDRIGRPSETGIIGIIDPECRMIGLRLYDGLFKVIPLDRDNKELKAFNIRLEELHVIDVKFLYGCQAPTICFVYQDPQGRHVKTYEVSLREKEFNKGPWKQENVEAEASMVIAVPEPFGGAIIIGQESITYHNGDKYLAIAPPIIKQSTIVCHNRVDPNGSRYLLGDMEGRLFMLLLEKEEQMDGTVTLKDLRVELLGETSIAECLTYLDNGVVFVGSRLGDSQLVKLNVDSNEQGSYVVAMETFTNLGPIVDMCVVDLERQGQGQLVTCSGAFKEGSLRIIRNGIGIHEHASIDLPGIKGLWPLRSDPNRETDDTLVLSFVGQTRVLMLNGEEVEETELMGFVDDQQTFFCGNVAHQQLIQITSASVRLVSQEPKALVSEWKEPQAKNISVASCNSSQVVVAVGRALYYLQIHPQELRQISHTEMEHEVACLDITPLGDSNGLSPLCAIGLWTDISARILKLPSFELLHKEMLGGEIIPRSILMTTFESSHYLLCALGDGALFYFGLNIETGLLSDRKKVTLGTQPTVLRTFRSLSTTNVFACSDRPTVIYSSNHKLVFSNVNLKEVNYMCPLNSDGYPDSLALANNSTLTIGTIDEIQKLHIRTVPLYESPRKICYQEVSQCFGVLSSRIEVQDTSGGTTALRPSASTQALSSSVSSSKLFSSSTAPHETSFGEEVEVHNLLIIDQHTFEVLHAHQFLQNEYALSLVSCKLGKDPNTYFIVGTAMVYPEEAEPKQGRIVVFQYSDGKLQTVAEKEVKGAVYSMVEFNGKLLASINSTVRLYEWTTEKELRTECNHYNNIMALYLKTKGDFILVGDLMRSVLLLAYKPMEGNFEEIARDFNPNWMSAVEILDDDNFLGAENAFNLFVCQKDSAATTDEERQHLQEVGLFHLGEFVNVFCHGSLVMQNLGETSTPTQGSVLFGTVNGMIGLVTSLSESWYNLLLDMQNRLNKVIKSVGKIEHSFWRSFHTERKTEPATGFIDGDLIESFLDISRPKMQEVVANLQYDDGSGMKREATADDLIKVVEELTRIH
T1 sequence (Q13422 whole entry): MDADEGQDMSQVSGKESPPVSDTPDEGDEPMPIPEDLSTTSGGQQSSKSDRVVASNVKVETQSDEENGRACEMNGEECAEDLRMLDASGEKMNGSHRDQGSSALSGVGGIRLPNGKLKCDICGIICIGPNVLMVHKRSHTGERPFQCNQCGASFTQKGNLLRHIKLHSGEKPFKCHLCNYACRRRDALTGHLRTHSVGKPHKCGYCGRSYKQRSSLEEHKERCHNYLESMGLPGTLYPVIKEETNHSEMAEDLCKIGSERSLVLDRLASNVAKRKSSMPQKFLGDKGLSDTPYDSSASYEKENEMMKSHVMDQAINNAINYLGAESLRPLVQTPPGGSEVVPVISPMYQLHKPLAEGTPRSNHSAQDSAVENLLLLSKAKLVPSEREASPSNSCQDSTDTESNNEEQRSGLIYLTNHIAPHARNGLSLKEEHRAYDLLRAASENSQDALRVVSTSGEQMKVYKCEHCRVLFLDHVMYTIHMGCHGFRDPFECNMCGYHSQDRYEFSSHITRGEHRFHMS
T1 sequence (Q96SW2 whole entry): as the sequence (Q96SW2 whole entry) above
T1 sequence (Q16531 whole entry partner): as the sequence (Q16531 whole entry partner) above

As for `O=C1CCC(N2Cc3c(ccc(C[C@H]4OCCC[C@@H]4NC4CCOC4)c3F)C2=O)C(=O)N1` (single isomer, unassigned) [Example 296], in test [1], the Dmax was 86% and the DC50 was 105 nM. Moreover, in test [2], the DC50 is more than 1000 nM.
As to `O=C1CCC(N2Cc3c(ccc(C[C@H]4OCCC[C@@H]4NC4CCOC4)c3F)C2=O)C(=O)N1` (single isomer, unassigned) [Example 297], in test [1], the DC50 worked out at 101 nM and the “IKZF2 Dmax” value worked out at 84%. Also, in test [2], the DC50 is more than 1000 nM.
`CC(N[C@H]1CCCO[C@@H]1Cc1ccc2c(c1F)CN(C1CCC(=O)NC1=O)C2=O)C1CCOCC1` (single isomer, unassigned) [Example 298]: in test [1], the DC50 stood at 55 nM and the “IKZF2 Dmax” value is recorded as 76%. Also, the DC50 in test [2] was more than 1000 nM.
On the same counts, the results for `CCC(C)N[C@H]1CCCC[C@@H]1Cc1ccc2c(c1)CN(C1CCC(=O)NC1=O)C2=O` (single isomer, unassigned) [Example 300] are 4 nM, 97% and more than 1000 nM.
In the case of `COC1(C)CCC(N[C@H]2CCCO[C@@H]2Cc2ccc3c(c2F)CN(C2CCC(=O)NC2=O)C3=O)CC1` (single isomer, unassigned) [Example 317], in test [1], the DC50 is 6 nM and the “IKZF2 Dmax” value is 94%. For the same molecule, in test [2], the Dmax was 33% and the DC50 is 243 nM.
Regarding `O=C1CCC(N2Cc3c(ccc(C[C@H]4OCCC[C@@H]4NC4CCC(OC(F)F)CC4)c3F)C2=O)C(=O)N1` (single isomer, unassigned) [Example 326], in test [1], the Dmax came out at 95% and the DC50 came out at 7 nM. Besides, in test [2], the Dmax amounted to 40% and the DC50 came to 261 nM.
In the case of `O=C1CC[C@H](N2Cc3cc(C[C@H]4CCCC[C@@H]4NC4CCCCC4)ccc3C2=O)C(=O)N1` (single isomer, unassigned) [Example 336], in test [1], the Dmax is 97% and the DC50 was 3 nM. Moreover, in test [2], the DC50 was more than 1000 nM.
On the same counts, the results for `O=C1CC[C@@H](N2Cc3cc(C[C@H]4CCCC[C@@H]4NC4CCCCC4)ccc3C2=O)C(=O)N1` (single isomer, unassigned) [Example 337] are 95%, 5 nM and more than 1000 nM.
For `O=C1CC[C@H](N2Cc3c(ccc(C[C@H]4OCCC[C@@H]4NC4CCCCC4)c3F)C2=O)C(=O)N1` (single isomer, unassigned) [Example 338], the Dmax in test [1] is 92%. In addition, the DC50 in test [1] was 6 nM; in test [2] it was more than 1000 nM.
On the same counts, the results for `O=C1CC[C@@H](N2Cc3c(ccc(C[C@H]4OCCC[C@@H]4NC4CCCCC4)c3F)C2=O)C(=O)N1` (single isomer, unassigned) [Example 339] are 93%, 11 nM and more than 1000 nM.
On the same counts, the results for `O=C1CCC(N2Cc3cc(C[C@H]4OCCC[C@@H]4NC4CCC(C(F)(F)F)CC4)ccc3C2=O)C(=O)N1` (single isomer, unassigned) [Example 356] are 76%, 49 nM and more than 1000 nM.
As for `O=C1CCC(N2Cc3cc(C[C@H]4OCCC[C@@H]4NC4CCC(C(F)(F)F)CC4)ccc3C2=O)C(=O)N1` (single isomer, unassigned) [Example 357], in test [1], the DC50 is 23 nM and the “IKZF2 Dmax” value stood at 89%. In addition, in test [2], the Dmax is 40% and the DC50 was found to be 465 nM.
On to `O=C1CCC(N2Cc3cc(C[C@H]4CCCC[C@@H]4NC4CCc5cn[nH]c5C4)ccc3C2=O)C(=O)N1` (single isomer, unassigned) [Example 358], for which, in test [1], the Dmax worked out at 100% and the DC50 is 18 nM. In test [2], the Dmax was found to be 34% and the DC50 was 231 nM.
On to `O=C1CCC(N2Cc3cc(C[C@H]4CCCC[C@@H]4NC4CCc5cn[nH]c5C4)ccc3C2=O)C(=O)N1` (single isomer, unassigned) [Example 359], for which, in test [1], the DC50 was 9 nM and the “IKZF2 Dmax” value was 101%. Besides, in test [2], the DC50 is 249 nM and the “IKZF1 Dmax” value is recorded as 43%.
Turning to `O=C1CCC(N2Cc3c(ccc(C[C@H]4OCCC[C@@H]4NC4CCc5cn[nH]c5C4)c3F)C2=O)C(=O)N1` (single isomer, unassigned) [Example 360], the Dmax in test [1] was found to be 90%. Also, the DC50 in test [1] was 139 nM; in test [2], more than 1000 nM.
Take `O=C1CCC(N2Cc3c(ccc(C[C@H]4OCCC[C@@H]4NC4CCc5cn[nH]c5C4)c3F)C2=O)C(=O)N1` (single isomer, unassigned) [Example 361]: in test [1], the DC50 amounted to 34 nM and the “IKZF2 Dmax” value worked out at 102%. For the same molecule, the DC50 in test [2] is more than 1000 nM.
`O=C1CCC(N2Cc3c(ccc(C[C@H]4OCCC[C@@H]4NC4CCC5(CC4)CC5(F)F)c3F)C2=O)C(=O)N1` (single isomer, unassigned) [Example 365]: in test [1], the DC50 was found to be 3 nM and the “IKZF2 Dmax” value stood at 95%. Besides, in test [2], the DC50 stood at 122 nM and the “IKZF1 Dmax” value is 43%.
With `CC(N[C@H]1CCCC[C@@H]1Cc1ccc2c(c1)CN(C1CCC(=O)NC1=O)C2=O)C1CCS(=O)(=O)CC1` (single isomer, unassigned) [Example 370], the Dmax in test [1] stood at 95%; in test [2], 53%. Besides, the DC50 stood at 10 nM in test [1] and 117 nM in test [2].
In the case of `CC(N[C@H]1CCCC[C@@H]1Cc1ccc2c(c1)CN(C1CCC(=O)NC1=O)C2=O)C1CCS(=O)(=O)CC1` (single isomer, unassigned) [Example 371], in test [1], the DC50 is 62 nM and the “IKZF2 Dmax” value stood at 94%. Also, in test [2], the DC50 turned out to be 461 nM and the “IKZF1 Dmax” value came out at 50%.
On to `O=C1CC[C@@H](N2Cc3c(ccc(C[C@H]4OCCC[C@@H]4N[C@H]4CC[C@@H](F)CC4)c3F)C2=O)C(=O)N1` (single isomer, unassigned) [Example 372], for which, in test [1], the greatest degradation seen (Dmax) was 94% and the DC50 stood at 5 nM. The DC50 in test [2] is more than 1000 nM.
Turning to `O=C1CCC(N2Cc3cc(C[C@H]4CC(CO)CC[C@@H]4NC4CCCCC4)ccc3C2=O)C(=O)N1` (single isomer, unassigned) [Example 382], in test [1], the DC50 stood at 629 nM and the “IKZF2 Dmax” value turned out to be 48%. In test [2], the DC50 is more than 1000 nM.
On the same counts, the results for `O=C1CCC(N2Cc3cc(C[C@H]4CC(CO)CC[C@@H]4NC4CCCCC4)ccc3C2=O)C(=O)N1` (single isomer, unassigned) [Example 383] are 226 nM, 77% and more than 1000 nM.
For the molecule `N[C@H]1CCCC[C@@H]1Cc1ccc2c(c1)CN(C1CCC(=O)NC1=O)C2=O` (stereo partly drawn) [Example 1, 3-(5-(((1R,2S)-2-aminocyclohexyl)methyl)-1-oxoisoindolin-2-yl)piperidine-2,6-dione], in test [1], the Dmax stood at 82% and the DC50 amounted to 225 nM. In addition, in test [2], the Dmax stood at 30% and the DC50 came to 933 nM.
On the same counts, the results for `O=C1CCC(N2Cc3cc(C[C@H]4CCCC[C@@H]4NCc4ccccc4Cl)ccc3C2=O)C(=O)N1` (stereo partly drawn) [Example 3, 3-(5-(((1R,2S)-2-((2-chlorobenzyl)amino)cyclohexyl)methyl)-1-oxoisoindolin-2-yl)piperidine-2,6-dione] are 94%, 19 nM, 38% and 34 nM.
On the same counts, the results for `O=C1CCC(N2Cc3cc(C[C@H]4CCCC[C@@H]4NCc4ccccc4)c(F)cc3C2=O)C(=O)N1` (stereo partly drawn) [Example 4, 3-(5-(((1R,2S)-2-(benzylamino)cyclohexyl)methyl)-6-fluoro-1-oxoisoindolin-2-yl)piperidine-2,6-dione] are 92%, 58 nM, 26% and 130 nM.
Take `O=C1CCC(N2Cc3c(ccc(C[C@H]4CCCC[C@@H]4N(Cc4ccccc4)Cc4ccccc4)c3F)C2=O)C(=O)N1` (stereo partly drawn) [Example 5, 3-(5-(((1R,2S)-2-(dibenzylamino)cyclohexyl)methyl)-4-fluoro-1-oxoisoindolin-2-yl)piperidine-2,6-dione]: in test [1], the Dmax turned out to be 92%. The DC50 was 353 nM in test [1] and more than 1000 nM in test [2].

As a reminder, the Dmax is the greatest extent of degradation seen. A lower Dmax goes with shallow degradation.
